Experimental data taken from US20230330254A1 (Regeneron Pharmaceuticals, Inc., priority 2022, published 2023).
Where two headings read alike, the source gives them in different places. Where a SMILES comes first, the peptide text is derived from it. [ ]: non-standard residue; d: D form. The star is where a group is joined. Bip(2'-Et,4'-O(CH2)4N3) = CCc1cc(OCCCCN=[N+]=[N-])ccc1-c1ccc(C[C@H](N)C(=O)O)cc1; Bip(2'-Et,4'-O(CH2)4NH2) = CCc1cc(OCCCCN)ccc1-c1ccc(C[C@H](N)C(=O)O)cc1; Malonyl(2,2-Me2,histaminyl) = CC(C)(C(=O)NCCc1cnc[nH]1)C(=O)*; Nva(5-(3,5-Me2Ph)) = Cc1cc(C)cc(CCC[C@H](N)C(=O)O)c1; Ala(1H-tetrazol-5-yl) = N[C@@H](Cc1nnn[nH]1)C(=O)O; αMePhe(2-F) = C[C@](N)(Cc1ccccc1F)C(=O)O; Desaminohistidyl = O=C(CCc1c[nH]cn1)*; Aib = CC(C)(N)C(=O)O; NHPh = c1ccc(N*)cc1

Legend:
[1] = Plasma stability of payloads and linker-payloads, human plasma; assay type: in vitro ADME; details: plasma, 2 μM, 37° C.; for half-life at 2 µM: read-out: Human plasma stability assay T½ (converted)
Experimental: The plasma stability of payloads and linker payloads of the disclosure were measured. For the assay, pooled frozen plasma (human, mouse or monkey) was thawed in cold water or a 37° C. water bath prior to experiment. Plasma was centrifuged at 4000 rpm for 5 min if any clots were observed, they were subsequently removed. If required, the pH was adjusted to 7.4±0.1. For the preparation of compounds and positive controls, a 1 mM intermediate solution was prepared by diluting 10 μL of their stock solution with 90 μL DMSO; a 1 mM intermediate solution of the positive control (Propantheline) was prepared by diluting 10 μL of its stock solution with 90 μL ultrapure water. […] 98 μL of plasma was spiked with 2 μL of dosing solution (100 μM) to achieve the final concentration of 2 μM in duplicate. Samples were then incubated at 37° C. in a water bath. […] At each time point, 400 μL of stop solution (200 ng/mL tolbutamide plus 200 ng/mL labetalol in 50% ACN/MeOH) was added to precipitate protein and mixed thoroughly. Sample plates were then centrifuged at 4,000 rpm for 10 min. An aliquot of supernatant (50 μL) was transferred from each well and mixed with 100 μL ultrapure water. The samples were then shaken at 800 rpm for approximately 10 min before submitting for LC-MS/MS analysis.

human GLP1R [2] = molecular target: T1, human GLP1R (Homo sapiens, UniProt P43220); experiment: Luciferase reporter assay, HEK293/CRE-Luc/hGLP1R (Example 17); assay type: cell-based; set-up: engineered to express full-length human GLP1R, cynomolgus GLP1R; expressed in transfected cells; host or cells: HEK293/CRE-Luc; details: HEK293/CRE-Luc/hGLP1R; for S/N: highest RLU / RLU of untreated wells; for EC50: payloads and linker-payloads, experiments A-E, M2361 repeated in each, read-out: EC50; for Relative Potency (% M2361 EC50) / Relative Signal:Noise (% M2361): relative to M2361 of the same experiment
T1 sequence (P43220 24-463): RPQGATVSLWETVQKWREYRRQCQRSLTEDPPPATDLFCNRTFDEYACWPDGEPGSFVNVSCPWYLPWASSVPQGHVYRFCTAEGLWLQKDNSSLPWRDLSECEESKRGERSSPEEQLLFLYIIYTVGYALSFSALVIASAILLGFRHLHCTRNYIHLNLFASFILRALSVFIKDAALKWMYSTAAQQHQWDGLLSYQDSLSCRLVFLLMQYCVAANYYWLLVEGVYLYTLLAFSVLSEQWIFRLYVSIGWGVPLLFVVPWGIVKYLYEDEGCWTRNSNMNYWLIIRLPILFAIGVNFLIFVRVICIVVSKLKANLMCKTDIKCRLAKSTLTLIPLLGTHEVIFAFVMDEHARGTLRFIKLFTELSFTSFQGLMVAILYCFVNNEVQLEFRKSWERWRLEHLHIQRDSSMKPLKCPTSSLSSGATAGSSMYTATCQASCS
Method in brief: (§1)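 HEK293 cells carrying a CRE-driven firefly luciferase reporter were exposed to 3-fold serial dilutions of payloads or linker-payloads (12 points, 0.2% DMSO final) for 4–6 h, then luminescence was read. EC50 came from a four-parameter logistic fit; S/N is top RLU over untreated wells, and relative potency and S/N are referenced to M2361.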

[3] = Plasma stability of payloads (t½)
HEK293/CRE-Luc cells [4] = experiment: Luciferase reporter assay, HEK293/CRE-Luc cells without GLP1R (Example 17); assay type: cell-based, human; details: HEK293/CRE-Luc cells without hGLP1R, payloads and linker-payloads; for EC50: read-out: EC50
Method in brief: as §1

HEK293/CRE-Luc cells [5] = experiment: Luciferase reporter assay, HEK293/CRE-Luc cells without hGLP1R (Example 11); assay type: cell-based, human; details: Table 11; Experiment A; no hGLP1R expression
Source text: (§2) To test the activity of GLP1R agonist payloads, GLP1R agonist linker-payloads (LPs), and anti-GLP1R antibody tethered drug conjugates (ATDCs) of the disclosure, a cell-based cAMP responsive luciferase reporter assay was developed. To generate the assay cell line, the firefly luciferase gene was placed under the control of a cAMP response element (CRE) located upstream of a minimal promoter and transfected into HEK293 cells and referred to herein as HEK293/CRE-Luc cells.
(§3) Three-fold serial dilutions of free payloads or LPs were prepared in 100% DMSO, transferred to fresh assay media, and added to the cells at a final constant DMSO concentration of 0.2%. The last well in the plate served as a blank control containing only the assay media and 0.2% DMSO (untreated well) and was plotted as a continuation of the 3-fold serial dilution. Four to six hours later, luciferase activity was determined after the addition of One-Glo™ reagent (Promega, Cat #E6130) to each well. Relative light units (RLUs) were measured on an Envision luminometer (PerkinElmer) and EC50 values were determined using a four-parameter logistic equation over a 12-point dose response curve (GraphPad Prism). The signal to noise (S/N) was determined by taking the ratio of the highest RLU on the dose response curve to the RLU in the untreated wells.

human GLP1R [6] = molecular target: T1, human GLP1R; experiment: Human GLP1R cAMP accumulation assay; assay type: cell-based; set-up: HEK293 cells over-expressing full length human GLP-1R were utilized; expressed in transfected cells; host or cells: HEK293 (HEK293/hGLP1R); details: HEK293/hGLP1R cells; Table 4; read-out: cAMP EC50
Method in brief: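 cAMP accumulation measured after 30 min at 23° C, with 500 μM IBMX in HEPES-buffered HBSS plus 0.1% BSA, in HEK293 cells expressing full-length hGLP-1R. Levels read by D2-cAMP/antibody immunoassay via standard curve, scaled between low and high controls. EC50 fitted four-parameter over a 10-point curve.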

human GLP1R [7] = molecular target: T1, human GLP1R; experiment: Luciferase reporter assay, HEK293/CRE-Luc/hGLP1R cells (Example 11); assay type: cell-based; set-up: engineered to express full-length human GLP1R, cynomolgus GLP1R; expressed in transfected cells; host or cells: HEK293/CRE-Luc; details: Table 11; Experiment A
Source text: as §2, §3
GLP1R agonist linker payloads were conjugated to anti-hGLP1R antibodies via N-terminal heavy or light chain Q tags. Several resulting anti-GLP1R antibody tethered drug conjugates (ATDCs) were tested for activity in the HEK293/CRE-Luc/hGLP1R reporter assay as described above for the free GLP1R payload and linker-payload agonists.

[8] = pH 7.4, tested time B (2 hrs per footnote)
[9] = pH 7.4, tested time A (1 day per footnote)

Row | Compound | half-life ([1]; tested time C (3 days), read-out: Human plasma stability assay T½) [h] | half-life at 2 µM [1, 8] [h] | S/N (human GLP1R [2]) | EC50 (human GLP1R [2]) [nM] | Relative Potency (% M2361 EC50) (human GLP1R [2]) [%] | Relative Signal:Noise (% M2361) (human GLP1R [2]) [%] | Plasma stability t½ [3] [h] | S/N (HEK293/CRE-Luc cells [4]) | EC50 (HEK293/CRE-Luc cells [4]) [nM] | EC50 (HEK293/CRE-Luc cells [5]) [nM] | HEK293/CRE-LUC S/N (HEK293/CRE-Luc cells [5]) | EC50 (human GLP1R [6]) [nM] | EC50 (human GLP1R [7]) [nM] | HEK293/CRE-LUC/hGLP1R Relative Potency (% P8 EC50) (human GLP1R [7]) [%] | HEK293/CRE-LUC/hGLP1R S/N (human GLP1R [7]) | half-life at 2 µM [1, 9] [h]
1 | CCc1cc(OCCCCn2cc(COCCOCCOCCOCCOCCOCCOCCOCCC(=O)N[C@@H](CC(C)C)C(=O)N3CCC[C@@H]3C(=O)N[C@@H](CCC(=O)O)C(=O)N[C@H](C(=O)NCC(=O)NCC(=O)O)[C@@H](C)O)nn2)ccc1-c1ccc(C[C@H](NC(=O)[C@H](CC(=O)O)NC(=O)[C@H](CO)NC(=O)[C@@H](NC(=O)[C@](C)(Cc2ccccc2F)NC(=O)[C@@H](NC(=O)CNC(=O)[C@H](Cc2nn[nH]n2)NC(=O)C(C)(C)C(=O)NCCc2cnc[nH]2)[C@@H](C)O)[C@@H](C)O)C(=O)N[C@@H](CCCc2cc(C)cc(C)c2)C(N)=O)cc1 [LP34, GGT EPL-PEG8-triazole-P8] | > 173 | – | – | – | – | – | – | – | – | – | – | – | – | – | – | –
2 | CCc1cc(OCCCCN)ccc1-c1ccc(C[C@H](NC(=O)[C@H](CC(=O)O)NC(=O)[C@H](CO)NC(=O)[C@@H](NC(=O)[C@](C)(Cc2ccccc2F)NC(=O)[C@@H](NC(=O)CNC(=O)[C@@H](N)Cc2nn[nH]n2)[C@@H](C)O)[C@@H](C)O)C(=O)N[C@@H](CCCc2cc(C)cc(C)c2)C(N)=O)cc1 [P2] | – | 10.7 | 306.2 | 19 | 0.1 | 93.4 | 10.7 | – | – | – | – | – | – | – | – | –
3 | CCc1cc(OCCCCN)ccc1-c1ccc(C[C@H](NC(=O)[C@H](CC(=O)O)NC(=O)[C@H](CO)NC(=O)[C@@H](NC(=O)[C@](C)(Cc2ccccc2F)NC(=O)[C@@H](NC(=O)CNC(=O)[C@H](Cc2nn[nH]n2)NC(=O)[C@H](C)NC(=O)[C@@H](N)Cc2cnc[nH]2)[C@@H](C)O)[C@@H](C)O)C(=O)N[C@@H](CCCc2cc(C)cc(C)c2)C(N)=O)cc1 [P10] (H-HA[Ala(1H-tetrazol-5-yl)]GT[αMePhe(2-F)]TSD[Bip(2'-Et,4'-O(CH2)4NH2)][Nva(5-(3,5-Me2Ph))]-NH2) | – | 1.83 | 45.1 | 0.014 | 38.0 | 68.6 | – | 1.2 | > 200 | > 200 | 1.2 | 0.047 | 0.014 | 38.0 | 45.1 | –
4 | CCc1cc(OCCCCN)ccc1-c1ccc(C[C@H](NC(=O)[C@H](CC(=O)O)NC(=O)[C@H](CO)NC(=O)[C@@H](NC(=O)[C@](C)(Cc2ccccc2F)NC(=O)[C@@H](NC(=O)CNC(=O)[C@H](Cc2nn[nH]n2)NC(=O)CNC(=O)CCc2c[nH]cn2)[C@@H](C)O)[C@@H](C)O)C(=O)N[C@@H](CCCc2cc(C)cc(C)c2)C(N)=O)cc1 [P12] (Desaminohistidyl-G[Ala(1H-tetrazol-5-yl)]GT[αMePhe(2-F)]TSD[Bip(2'-Et,4'-O(CH2)4NH2)][Nva(5-(3,5-Me2Ph))]-NH2) | – | – | – | 0.0114 | – | – | >57.8 | – | – | – | – | 0.039 | 0.0114 | – | – | > 57.8
5 | CCc1cc(OCCCCN)ccc1-c1ccc(C[C@H](NC(=O)[C@H](CC(=O)O)NC(=O)[C@H](CO)NC(=O)[C@@H](NC(=O)[C@](C)(Cc2ccccc2F)NC(=O)[C@@H](NC(=O)CNC(=O)[C@H](Cc2nn[nH]n2)NC(=O)C(C)(C)NC(=O)[C@@H](N)Cc2ccc(O)cc2)[C@@H](C)O)[C@@H](C)O)C(=O)N[C@@H](CCCc2cc(C)cc(C)c2)C(N)=O)cc1 [P19] (H-Y[Aib][Ala(1H-tetrazol-5-yl)]GT[αMePhe(2-F)]TSD[Bip(2'-Et,4'-O(CH2)4NH2)][Nva(5-(3,5-Me2Ph))]-NH2) | – | – | 78.5 | 0.0535 | 9.9 | 119.4 | >57.8 | 1.0 | > 200 | – | – | 0.156 | – | – | – | > 57.8
6 | CCc1cc(OCCCCN)ccc1-c1ccc(C[C@H](NC(=O)[C@H](CC(=O)O)NC(=O)[C@H](CO)NC(=O)[C@@H](NC(=O)[C@](C)(Cc2ccccc2F)NC(=O)[C@@H](NC(=O)CNC(=O)[C@H](Cc2nn[nH]n2)NC(=O)C(C)(C)C(=O)NCCc2cnc[nH]2)[C@@H](C)O)[C@@H](C)O)C(=O)N[C@@H](CCCc2cc(C)cc(C)c2)C(=O)Nc2ccccc2)cc1 [P23] ({Malonyl(2,2-Me2,histaminyl)}-[Ala(1H-tetrazol-5-yl)]GT[αMePhe(2-F)]TSD[Bip(2'-Et,4'-O(CH2)4NH2)][Nva(5-(3,5-Me2Ph))]-NHPh) | – | 10.7 | 57.1 | 0.00515 | 103.0 | 86.9 | – | 1.6 | > 200 | > 200 | 1.6 | 0.198 | 0.00515 | 103.0 | 57.1 | –
7 | CCc1cc(OCCCCN=[N+]=[N-])ccc1-c1ccc(C[C@H](NC(=O)[C@H](CC(=O)O)NC(=O)[C@H](CO)NC(=O)[C@@H](NC(=O)[C@](C)(Cc2ccccc2F)NC(=O)[C@@H](NC(=O)CNC(=O)[C@H](Cc2nn[nH]n2)NC(=O)C(C)(C)C(=O)NCCc2cnc[nH]2)[C@@H](C)O)[C@@H](C)O)C(=O)N[C@@H](CCCc2cc(C)cc(C)c2)C(=O)O)cc1 [P41] ({Malonyl(2,2-Me2,histaminyl)}-[Ala(1H-tetrazol-5-yl)]GT[αMePhe(2-F)]TSD[Bip(2'-Et,4'-O(CH2)4N3)][Nva(5-(3,5-Me2Ph))]-OH) | – | – | – | – | – | – | – | – | – | – | – | – | – | – | – | > 57.8
